Measurements taken from US9765038B2, “Heteroaryl compounds and uses thereof” (Celgene CAR LLC, priority 2010, dated 2017).

What was measured:
[1] = molecular target: EGFR double mutation L858R/T790M (H1975 cells) (Homo sapiens (Human), UniProt P00533, L858R/T790M); assay: EGFR signaling immunoblot (phospho-EGFR, phospho-S6) in H1975 cells; format: cell-based; settings: for Ratio WT/mutant: signaling EC50, WT EGFR (A431) vs H1975
Experimental: (§1) A431 human epidermoid carcinoma, H1975 human NSCLC and HCC827 human NSCLC adenocarcinoma cells were obtained from the American Type Culture Center (Manassas, Va.). A431 cells were grown in DMEM (Invitrogen, Carlsbad, Calif.) supplemented with 10% FBS (HyClone, South Logan, Utah) and 1% Penicillin-Streptomycin (P/S, Lonza, Walkersville, Md.).
(§2) All primary antibodies were obtained from Cell Signaling (Danvers, Mass.) and used at 1:1000. Secondary antibodies were used at 1:10,000. Goat anti-mouse IgG IRDye 800CW antibody was obtained from LiCor Biosciences (Lincoln, Nebr.) and goat anti-rabbit IgG Alexa Fluor 680 was obtained from Invitrogen.
(§3) Cells were grown in 12-well plates (Corning, Coring, N.Y.) to 90% confluence and then incubated in low-serum (0.1% FBS) media for 16-18 hr. […] A431 cells were then stimulated with 50 ng/ml EGF (Peprotech, Rocky Hill, N.J.) for 15 min. After treatment, cell monolayers were washed with cold PBS (Invitrogen) and immediately lysed by scrapping into 60 uL cold Cell Extraction Buffer (Invitrogen) supplemented with Complete Protease inhibitors (Roche, Indianapolis, Ind.) and PhosphoSTOP (Roche) phosphatase inhibitors.
(§4) Phospho-protein signals were quantitated using Odyssey Infrared Imaging (Li-Cor Biosciences).
(§5) Blots were normalized as indicated above. […] Normalized data was fitted using a sigmoidal curve analysis program (Graph Pad Prism version 5) with variable Hill slope to determine the EC50 values.

EGFR T790M/L858R [2] = molecular target: T1, EGFR T790M/L858R (Homo sapiens (Human), UniProt P00533, L858R/T790M); assay: Omnia assay, EGFR (T790M/L858R) active enzyme; format: biochemical; settings: for Ratio WT/mutant: biochemical IC50, WT EGFR vs EGFR (T790M/L858R); for IC50: [EGFR-T790M/L858R]=2.5 nM, [ATP]=20 uM, 30 min pre-incubation
WT EGFR (A431 cells) = WT EGFR (A431 cells) (Homo sapiens (Human), UniProt P00533); assay: EGFR signaling immunoblot (phospho-EGFR, phospho-S6) in A431 cells; format: cell-based; settings: FIG. 2
Experimental: as §1, §2, §3, §4
Blots were normalized as indicated above. […]

[3] = test system: H1975 cells (EGFR L858R/T790M); assay: Cell proliferation (CellTiter Glo), H1975 cells; format: cell-based, human; settings: GI50, WT EGFR (A431) vs H1975
Experimental: as §1
(§6) Growth inhibition (GI50) values were determined by Graph Pad Prism.

EGFR T790M/L858R [4] = molecular target: T1, EGFR T790M/L858R; settings: for covalent modification of the protein: intact protein MS, I-1 within 30 minutes
[5] = test system: HCC827 cells (EGFR delE746-A750); assay: Cell proliferation (CellTiter Glo), HCC827 cells; format: cell-based, human; settings: GI50, WT EGFR (A431) vs HCC827
Experimental: as §1, §6

EGFR-WT = EGFR-WT (Homo sapiens (Human), UniProt P00533); assay: Omnia assay, EGFR (WT) active enzyme; format: biochemical; settings: [EGFR-WT]=5 nM, [ATP]=15 uM, 30 min pre-incubation
[6] = molecular target: EGFR delE746-A750 mutation (HCC827 cells) (Homo sapiens (Human), UniProt P00533, DEL746-750); assay: EGFR signaling immunoblot in HCC827 cells; format: cell-based; settings: for Ratio WT/mutant: signaling EC50, WT EGFR (A431) vs HCC827
Experimental: as §1, §2, §3, §4, §5

pEGFR in H1975 cells = pEGFR in H1975 cells (Homo sapiens (Human), UniProt P00533, L858R/T790M); settings: 500 nM for 1 hr, washout up to 24 hr, FIG. 3
[7] = 10-fold excess of compound, MALDI, FIG. 4

Ratio WT/mutant [1]	Ratio WT/mutant (EGFR T790M/L858R [2])	Structure (SMILES)	further results
>50	>45	C=CC(=O)Nc1cccc(Nc2nc(Nc3ccc(OC)c(OC)c3OC)ncc2Br)c1 [Compound I-5, N-(3-(5-bromo-2-(2,3,4-trimethoxyphenylamino)pyrimidin-4-ylamino)phenyl)acrylamide]	
	>30	C=CC(=O)Nc1cccc(Nc2nc(Nc3ccccc3OC)ncc2Cl)c1 [Compound I-18, N-(3-(5-chloro-2-(2-methoxyphenylamino)pyrimidin-4-ylamino)phenyl)acrylamide]	
	>45	C=CC(=O)Nc1cccc(Nc2nc(Nc3ccc(OC)cc3OC)ncc2Br)c1 [Compound I-20, N-(3-(5-bromo-2-(2,4-dimethoxyphenylamino)pyrimidin-4-ylamino)phenyl)acrylamide]	
>5	>50	C=CC(=O)Nc1cccc(Nc2nc(Nc3ccc(OC)cc3OC)ncc2Cl)c1 [Compound I-21, N-(3-(5-chloro-2-(2,4-dimethoxyphenylamino)pyrimidin-4-ylamino)phenyl)acrylamide]	
>50	>25	C=CC(=O)Nc1cccc(Nc2nc(Nc3ccc(OC)c(OC)c3OC)ncc2C(F)(F)F)c1 [Compound I-11, N-(3-(5-(trifluoromethyl)-2-(2,3,4-trimethoxyphenylamino)pyrimidin-4-ylamino)phenyl)acrylamide]	Ratio WT/mutant [6]: >5
		C=CC(=O)Nc1cccc(Oc2nc(Nc3ccccc3OC)ncc2C(F)(F)F)c1 [Compound I-2, N-(3-(2-(2-methoxyphenylamino)-5-(trifluoromethyl)pyrimidin-4-yloxy)phenyl)acrylamide]	duration of action after washout (pEGFR) (pEGFR in H1975 cells): prolonged duration of action; covalent modification of the protein (EGFR T790M/L858R [4]): covalently modify the protein
>50	>50	C=CC(=O)Nc1cccc(Nc2nc(Nc3ccccc3OC)ncc2C(F)(F)F)c1 [Compound I-1, N-(3-(2-(2-methoxyphenylamino)-5-(trifluoromethyl)pyrimidin-4-ylamino)phenyl)acrylamide]	duration of action after washout (pEGFR) (pEGFR in H1975 cells): prolonged duration of action; Ratio WT/mutant [6]: >50; mass shift (EGFR T790M/L858R [4]; [7]): 488 Da; mass shift relative to compound mass (EGFR T790M/L858R [4]; [7]): 113%; covalent modification of the protein (EGFR T790M/L858R [4]): completely modifies
	>10	C=CC(=O)Nc1cccc(Oc2nc(Nc3ccccc3OC)ncc2F)c1 [Compound I-19, N-(3-(5-fluoro-2-(2-methoxyphenylamino)pyrimidin-4-yloxy)phenyl)acrylamide]	
>50	>50	C=CC(=O)Nc1cccc(Oc2nc(Nc3ccc(OC)c(OC)c3OC)ncc2C(F)(F)F)c1 [Compound I-10, N-(3-(5-(trifluoromethyl)-2-(2,3,4-trimethoxyphenylamino)pyrimidin-4-yloxy)phenyl)acrylamide]	
	>35	C=CC(=O)Nc1cccc(Oc2nc(Nc3cccc(OC)c3OC)ncc2Cl)c1 [Compound I-17, N-(3-(5-chloro-2-(2,3-dimethoxyphenylamino)pyrimidin-4-yloxy)phenyl)acrylamide]	IC50 (EGFR-WT): 0.3 to 1 µM; EC50 ([6]; HCC827 cells, signaling, 1 hr): 0.5 to 1 µM; IC50 (EGFR T790M/L858R [2]): 0.01 to 0.1 µM
	>45	C=CC(=O)Nc1cccc(Oc2nc(Nc3cccc(OC)c3OC)ncc2Br)c1 [Compound I-6, N-(3-(5-bromo-2-(2,3-dimethoxyphenylamino)pyrimidin-4-yloxy)phenyl)acrylamide]	

Structure (SMILES)	Ratio WT/mutant [1]	Ratio WT/mutant (EGFR T790M/L858R [2])	further results
C=CC(=O)Nc1cccc(Oc2nc(Nc3ccc(OC)c(OC)c3OC)ncc2Cl)c1 [Compound I-7, N-(3-(5-chloro-2-(2,3,4-trimethoxyphenylamino)pyrimidin-4-yloxy)phenyl)acrylamide]	>50	>25	inhibition of pEGFR and downstream S6 ribosomal protein ([1]; H1975 cells, FIG. 1 and FIG. 2): inhibiting pEGFR and its downstream target S6 Ribosomal protein; WT-EGFR sparing (WT EGFR (A431 cells)): completely WT-EGFR sparing; Ratio WT/mutant [3]: >10; covalent modification of the protein (EGFR T790M/L858R [4]): covalently modify the protein; Ratio WT/mutant [5]: >15
C=CC(=O)Nc1cccc(Nc2nc(Nc3cccc(OC)c3OC)ncc2Br)c1 [Compound I-14, N-(3-(5-bromo-2-(2,3-dimethoxyphenylamino)pyrimidin-4-ylamino)phenyl)acrylamide]		>50	IC50 (EGFR-WT): 0.3 to 1 µM; IC50 (EGFR T790M/L858R [2]): 0.001 to 0.01 µM
